Data taken from patent US20250059174A1, “Pharmaceutical Compounds and Compositions as C-Kit Kinase Inhibitors” (Enanta Pharmaceuticals, Inc., priority 2023, published 2025).

Key:
[1] = target: Recombinant human c-KIT kinase (Homo sapiens (Human), UniProt P10721); assay: c-KIT kinase chemiluminescence assay (ADP-Glo); format: biochemical; conditions: ATP 50 μM
Summary of the method: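 ADP formed by c-KIT on polyEY over 2 h at RT (after 30 min enzyme preincubation; Tris pH 7.5, MgCl2, BSA, DTT buffer) was detected by ADP-Glo luminescence. IC50 and Hill slope were fitted to control-normalized activity across compound concentrations.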

[2] = system: M-07e cells; assay: M-07e cellular assay (SCF-mediated cell proliferation); format: cell-based; conditions: Homo sapiens, 72 hours, CellTiter Glo
Method: M-07e cells (Creative Bioarray, CSC-C0249) which endogenously express human c-KIT were used to evaluate the effect of compounds on stem cell factor (SCF)-mediated cell proliferation. M-07e cells were cultured in growth media (RPMI+10% FBS+1% penicillin/streptomycin+10 ng/mL GM-CSF) at 5E5-1.5E6 cells/mL, replenishing media every 3-4 days. 1.5E4 cells were seeded per well in 384 well tissue culture treated plates in 20 μL assay media (RPMI+[…]+1% penicillin/streptomycin) without growth factor stimulation and incubated at 37° C. in a CO2 humidity-controlled incubator. Twenty-four hours later, three-fold serially diluted test compounds in media containing SCF (at the previously determined EC90) were added to the plated M-07e cells and incubated for an additional 72 hours. Cell viability was determined by adding 25 μL CellTiter Glo (Promega) to the cells and the luminescence was measured using a Perkin Elmer Envision plate reader. The EC50 was determined using GraphPad Prism. Percent cell growth was determined after normalizing the curve to the mean RLU high control (no compound control wells) at 100% and the mean RLU low control (no SCF control wells) at 0%.

Chain of Recombinant human c-KIT kinase (P10721 26-976): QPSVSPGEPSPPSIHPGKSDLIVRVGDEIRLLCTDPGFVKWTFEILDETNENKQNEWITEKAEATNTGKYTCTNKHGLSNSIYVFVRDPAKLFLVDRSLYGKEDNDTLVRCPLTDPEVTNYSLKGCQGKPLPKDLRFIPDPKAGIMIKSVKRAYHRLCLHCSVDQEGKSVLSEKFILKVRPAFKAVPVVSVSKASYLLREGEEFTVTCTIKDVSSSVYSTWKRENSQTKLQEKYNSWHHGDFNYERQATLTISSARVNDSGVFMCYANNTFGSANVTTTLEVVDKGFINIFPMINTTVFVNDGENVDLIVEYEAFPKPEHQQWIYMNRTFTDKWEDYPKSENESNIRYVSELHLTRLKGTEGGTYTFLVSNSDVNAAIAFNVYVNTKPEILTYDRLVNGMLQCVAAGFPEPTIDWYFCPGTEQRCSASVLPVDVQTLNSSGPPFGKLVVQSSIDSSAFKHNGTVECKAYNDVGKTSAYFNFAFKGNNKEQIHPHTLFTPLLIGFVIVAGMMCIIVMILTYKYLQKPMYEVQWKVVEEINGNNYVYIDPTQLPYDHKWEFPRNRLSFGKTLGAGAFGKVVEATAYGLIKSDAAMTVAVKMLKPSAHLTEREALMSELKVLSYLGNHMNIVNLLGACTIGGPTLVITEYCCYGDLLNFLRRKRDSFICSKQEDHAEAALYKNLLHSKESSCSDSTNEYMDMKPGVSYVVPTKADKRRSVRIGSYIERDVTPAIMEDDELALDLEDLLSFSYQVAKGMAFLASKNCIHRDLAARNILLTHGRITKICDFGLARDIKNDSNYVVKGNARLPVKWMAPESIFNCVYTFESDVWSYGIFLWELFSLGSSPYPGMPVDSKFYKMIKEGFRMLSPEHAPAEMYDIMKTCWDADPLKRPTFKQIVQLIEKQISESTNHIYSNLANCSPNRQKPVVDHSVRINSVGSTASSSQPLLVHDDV

Structure (SMILES) | IC50 [1] [nM] | EC50 [2] [nM]
Cc1ccc(-c2noc([C@H]3C[C@@H]3F)n2)cc1NC(=O)c1cnn2ccc(-c3nnn(CC(C)(C)O)n3)cc12 [Example 132] | < 100 | < 100
Cc1ccc(-c2noc([C@H]3C[C@@H]3F)n2)cc1NC(=O)c1cnn2ccc(-c3ccn(C(F)F)n3)cc12 [Example 135] | < 100 | 100 to 1000
Cc1ccc(-c2noc([C@H]3C[C@@H]3F)n2)cc1NC(=O)c1cnn2ccc(-c3cnn(C4COC4)c3)cc12 [Example 136] | < 100 | < 100
Cc1ccc(-c2noc([C@H]3C[C@@H]3F)n2)cc1NC(=O)c1cnn2ccc(-c3cnn(CCO)c3)cc12 [Example 138] | < 100 | < 100
Cc1ccc(-c2noc([C@H]3C[C@@H]3F)n2)cc1NC(=O)c1cnn2ccc(-c3cnn(C(C)(C)CO)c3)cc12 [Example 140] | < 100 | < 100
Cc1ccc(-c2noc([C@H]3C[C@@H]3F)n2)cc1NC(=O)c1cnn2ccc(-c3cnn(CC(C)(C)O)c3)cc12 [Example 142] | < 100 | < 100
Cc1ccc(-c2noc([C@H]3C[C@@H]3F)n2)cc1NC(=O)c1cnn2cc(-c3c(C)nn(CC(C)(C)O)c3C)ccc12 [Example 144] | < 100 | < 100
Cc1ccc(-c2noc([C@H]3C[C@@H]3F)n2)cc1NC(=O)c1cnn2ccc(-c3c(C)nn(C4COC4)c3C)cc12 [Example 145] | < 100 | < 100
COCCn1nc(C)c(-c2ccn3ncc(C(=O)Nc4cc(-c5noc([C@H]6C[C@@H]6F)n5)ccc4C)c3c2)c1C [Example 146] | < 100 | < 100
Cc1ccc(-c2noc([C@H]3C[C@@H]3F)n2)cc1NC(=O)c1cnn2ccc(-c3ccc(F)cc3)cc12 [Example 148] | 100 to 1000 | 100 to 1000
Cc1ccc(-c2noc([C@H]3C[C@@H]3F)n2)cc1NC(=O)c1cnn2cc(-c3ccc(F)cc3)ccc12 [Example 149] | < 100 | < 100
Cc1ccc(-c2noc([C@H]3C[C@@H]3F)n2)cc1NC(=O)c1cnn2ccc(-c3cccnc3)cc12 [Example 150] | < 100 | < 100
Cc1ccc(-c2noc([C@H]3C[C@@H]3F)n2)cc1NC(=O)c1cnn2cc(-c3cccnc3)ccc12 [Example 151] | < 100 | < 100
Cc1ccc(-c2noc([C@H]3C[C@@H]3F)n2)cc1NC(=O)c1cnn2ccc(-c3c(C)nn(CC(C)(C)O)c3C)cc12 [Example 152] | < 100 | < 100
COCCn1cc(-c2ccn3ncc(C(=O)Nc4cc(-c5noc([C@H]6C[C@@H]6F)n5)ccc4C)c3c2)cn1 [Example 153] | < 100 | < 100
Cc1ccc(-c2noc([C@H]3C[C@@H]3F)n2)cc1NC(=O)c1cnn2ccc(-c3cncnc3)cc12 [Example 154] | < 100 | < 100

Structure (SMILES) | IC50 [1] [nM] | EC50 [2] [nM]
Cc1ccc(-c2noc([C@H]3C[C@@H]3F)n2)cc1NC(=O)c1cnn2cc(-c3cncnc3)ccc12 [Example 155] | 100 to 1000 | 100 to 1000
Cc1ccc(-c2noc([C@H]3C[C@@H]3F)n2)cc1NC(=O)c1cnn2ccc(-c3cnc(N(C)C)nc3)cc12 [Example 156] | < 100 | < 100
Cc1ccc(-c2noc([C@H]3C[C@@H]3F)n2)cc1NC(=O)c1cnn2ccc(-c3cnc(C(F)(F)F)nc3)cc12 [Example 157] | 100 to 1000 | 100 to 1000
Cc1ccc(-c2noc([C@H]3C[C@@H]3F)n2)cc1NC(=O)c1cnn2ccc(-c3cnc(C(C)(C)O)nc3)cc12 [Example 158] | 100 to 1000 | < 100
Cc1ccc(-c2noc([C@H]3C[C@@H]3F)n2)cc1NC(=O)c1cnn2ccc(-c3cnc(NC4CC4)nc3)cc12 [Example 159] | < 100 | < 100
Cc1ccc(-c2noc([C@H]3C[C@@H]3F)n2)cc1NC(=O)c1cnn2ccc(-c3cnc(C4CC4)nc3)cc12 [Example 160] | < 100 | < 100
Cc1ccc(-c2noc([C@H]3C[C@@H]3F)n2)cc1NC(=O)c1cnn2ccc(-c3c(C)n[nH]c3C)cc12 [Example 161] | < 100 | < 100
Cc1ccc(-c2noc([C@H]3C[C@@H]3F)n2)cc1NC(=O)c1cnn2ccc(-c3c(C)nn(CCN4CCOCC4)c3C)cc12 [Example 162] | < 100 | < 100
Cc1ncc(-c2ccn3ncc(C(=O)Nc4cc(-c5noc([C@H]6C[C@@H]6F)n5)ccc4C)c3c2)cn1 [Example 163] | < 100 | < 100
Cc1ccc(-c2noc([C@H]3C[C@@H]3F)n2)cc1NC(=O)c1cnn2cc(F)c(-c3c(C)nn(CC(C)(C)O)c3C)cc12 [Example 164] | 100 to 1000 | 100 to 1000
Cc1ccc(-c2noc([C@H]3C[C@@H]3F)n2)cc1NC(=O)c1cnn2cc(Cl)c(-c3c(C)nn(CC(C)(C)O)c3C)cc12 [Example 165] | > 1000 | 100 to 1000
Cc1ccc(-c2noc([C@H]3C[C@@H]3F)n2)cc1NC(=O)c1cnn2cc(F)c(-c3c(C)nn(C(F)F)c3C)cc12 [Example 166] | > 1000 | 100 to 1000
Cc1ccc(-c2noc([C@H]3C[C@@H]3F)n2)cc1NC(=O)c1cnn2cc(Cl)c(-c3c(C)nn(C(F)F)c3C)cc12 [Example 167] | > 1000 | > 1000
Cc1ncc(-c2ccc3c(C(=O)Nc4cc(-c5noc([C@H]6C[C@@H]6F)n5)ccc4C)cnn3c2)c(C)n1 [Example 169] | 100 to 1000 | 100 to 1000
Cc1nc(C)c(-c2ccn3ncc(C(=O)Nc4cc(-c5noc([C@H]6C[C@@H]6F)n5)ccc4C)c3c2)s1 [Example 170] | < 100 | < 100

More lines, main results first:

IC50 [1] [nM] | Structure (SMILES) | EC50 [2] [nM]
< 100 | CC#Cc1ccc2c(C(=O)Nc3cc(-c4noc([C@H]5C[C@@H]5F)n4)ccc3C)cnn2c1 [Example 132-1] | 100 to 1000
100 to 1000 | CC#Cc1ccc2c(C(=O)Nc3cc(-c4noc([C@H]5C[C@@H]5F)n4)c(F)cc3C)cnn2c1 [Example 132-2] | 100 to 1000
< 100 | Cc1ccc(-c2noc([C@H]3C[C@@H](OC(F)F)C3)n2)cc1NC(=O)c1cnn2cc(-c3cn(C(F)(F)C(=O)O)nn3)ccc12 [Example 132-3] | > 1000
< 100 | Cc1ccc(-c2noc([C@H]3C[C@@H]3F)n2)cc1NC(=O)c1cnn2cc(-c3cn(C(F)(F)C(=O)O)nn3)ccc12 [Example 132-4] | > 1000
100 to 1000 | Cc1ncc(-c2noc([C@H]3C[C@@H]3F)n2)cc1NC(=O)c1cnn2cc(-c3cn(C(F)F)nn3)ccc12 [Example 132-5] | < 100
100 to 1000 | Cc1ncc(-c2noc([C@H]3C[C@@H](OC(F)(F)F)C3)n2)cc1NC(=O)c1cnn2cc(-c3cn(C(F)F)nn3)ccc12 [Example 132-6] | < 100
100 to 1000 | Cc1ncc(-c2noc(C3CC(F)(F)C3)n2)cc1NC(=O)c1cnn2cc(-c3cn(C(F)F)nn3)ccc12 [Example 132-7] | 100 to 1000
< 100 | Cc1ncc(-c2noc([C@H]3C[C@@H](C(F)(F)F)C3)n2)cc1NC(=O)c1cnn2cc(-c3cn(C(F)F)nn3)ccc12 [Example 132-8] | < 100
< 100 | Cc1ncc(-c2noc([C@H]3C[C@@H](OC(F)(F)F)C3)n2)cc1NC(=O)c1cnn2cc(-c3cn(CCO)nn3)ccc12 [Example 132-9] | < 100
100 to 1000 | Cc1ncc(-c2noc([C@H]3C[C@@H](OC(F)(F)F)C3)n2)cc1NC(=O)c1cnn2cc(-c3cn(CC(C)(C)O)nn3)ccc12 [Example 132-10] | < 100
< 100 | Cc1ncc(-c2noc([C@H]3C[C@@H](OC(F)(F)F)C3)n2)cc1NC(=O)c1cnn2cc(-c3cn(CC4(C)COC4)nn3)ccc12 [Example 132-12] | < 100
< 100 | Cc1ccc(-c2ncc(C3CC3)cn2)cc1NC(=O)c1cnn2cc(-c3cn(C(F)F)nn3)ccc12 [Example 132-13] | < 100
< 100 | Cc1ccc(-c2ncc(C3CC3)cn2)cc1NC(=O)c1cnn2cc(-c3cn(CC(C)(C)O)nn3)ccc12 [Example 132-14] | < 100
< 100 | COC(=O)N1CC(c2nc(-c3ccc(C)c(NC(=O)c4cnn5cc(-c6cn(C(F)F)nn6)ccc45)c3)no2)C1 [Example 132-15] | < 100
100 to 1000 | COC(=O)N1CC(c2nc(-c3cnc(C)c(NC(=O)c4cnn5cc(-c6cn(C(F)F)nn6)ccc45)c3)no2)C1 [Example 132-16] | 100 to 1000
< 100 | COC(=O)N1CC(c2nc(-c3ccc(Cl)c(NC(=O)c4cnn5cc(-c6cn(C(F)F)nn6)ccc45)c3)no2)C1 [Example 132-17] | < 100
< 100 | Cc1ccc(-c2noc([C@H]3C[C@@H]3F)n2)cc1NC(=O)c1cnn2ccc(C3CC4(C3)CC(F)(F)C4)cc12 [Example 167-1] | < 100
< 100 | Cc1ccc(-c2noc([C@H]3C[C@@H]3F)n2)cc1NC(=O)c1cnn2ccc(-c3nnc(N)nc3C)cc12 [Example 171-1] | < 100
